Measurements taken from US8293769B2, “CSF-1R inhibitors, compositions, and methods of use” (Novartis AG, priority 2008, dated 2012).

Experiments:
cKIT = biological target: T1, cKIT (Homo sapiens, UniProt P10721); assay: cKIT kinase in vitro biochemical assay (alphascreen); settings: tested at about 1 μM; read-out: CKIT percent inhibition
T1 construct: The kinase domain of cKIT was assayed in 50 mM Hepes; purchased Upstate 14-559

[1] = test system: MNFS60 (murine AML cells); assay: Cell viability assay in MCSF dependent MNFS60 cells (Cell Titer Glo); format: cell-based; settings: Mus musculus; tested at about 1 μM; MCSF 10 ng/mL, 72 hrs; read-out: CPEC50 MNFS60MCSF percent inhibition
Description: Cell viability was assessed by Cell Titer Glo, Promega. MNFS60 (murine AML cells) were seeded in TC treated 96-well plates at a density of 5,000 cells per well in RPMI-1640, 10% FBS, and 1% Penicillin Streptomycin prior to addition of compound. Test compounds were serially diluted (3 fold) in DMSO to 500× the final concentration. For each concentration of test compound, 2 μl (500×) aliquots of compound or 100% DMSO (control) were diluted in 500 μl of culture medium that contained 2× final concentration of growth factor MCSF for 2× concentration and then diluted 1× on the cells. Final concentration of MCSF is 10 ng/mL. Cells were incubated for 72 hrs at 37° C., 5% CO2. After the incubation 100 μl Cell Titer Glo is added to each well to determine viable cells. The assay was performed according to the manufacturer's instruction (Promega Corporation, Madison, Wis. USA). Each experimental condition was performed in triplicate. Raw data was imported in Abase and EC50s calculated with XL-fit data analysis software: Relative light units of wells that contained cells without MCSF in the media and as a consequence didn't grow were defined as 100% inhibited.

PDGFRb = biological target: T2, PDGFRb (Homo sapiens, UniProt P09619); assay: PDGFRb kinase in vitro biochemical assay (alphascreen); settings: tested at about 1 μM; read-out: PDGF RK BETA percent inhibition
T2 construct: The kinase domain of PDGFRβ was assayed in 50 mM Hepes; purchased Invitrogen P3082

[2] = biological target: T3, cytoplasmic domain of the human CSF-1R (Homo sapiens, UniProt P07333); assay: In vitro kinase assay for CSF-1R (AlphaScreen); format: biochemical; settings: tested at about 1 μM; read-out: CSF1RK 1 percent inhibition
T3 construct: Recombinant protein corresponding to the cytoplasmic domain of the human CSF-1R; purchased Invitrogen Corporation, Carlsbad, Calif; PV3249
T3 sequence (P07333 539-972 limits assumed): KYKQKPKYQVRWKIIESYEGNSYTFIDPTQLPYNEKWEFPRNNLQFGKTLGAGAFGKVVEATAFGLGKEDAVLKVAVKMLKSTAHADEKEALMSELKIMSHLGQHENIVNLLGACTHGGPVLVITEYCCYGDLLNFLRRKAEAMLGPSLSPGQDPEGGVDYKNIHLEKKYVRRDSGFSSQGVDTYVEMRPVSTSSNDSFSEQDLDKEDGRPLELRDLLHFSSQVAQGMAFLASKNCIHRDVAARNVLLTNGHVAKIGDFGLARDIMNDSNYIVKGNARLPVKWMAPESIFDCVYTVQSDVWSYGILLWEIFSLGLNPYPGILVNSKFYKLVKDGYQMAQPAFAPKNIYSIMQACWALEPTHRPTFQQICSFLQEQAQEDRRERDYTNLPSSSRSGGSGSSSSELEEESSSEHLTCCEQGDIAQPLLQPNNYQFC
In short: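 Recombinant CSF-1R cytoplasmic domain (4 nM) phosphorylated biotinylated peptide (0.05 μM) at 1.0 μM ATP in HEPES with Mg2+/Mn2+, 2 h at room temperature, compounds from 25 μM in 3-fold steps. AlphaScreen anti-phosphotyrosine PT66 detection; IC50 by non-linear regression.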

T2 sequence (P09619 600-962 limits assumed): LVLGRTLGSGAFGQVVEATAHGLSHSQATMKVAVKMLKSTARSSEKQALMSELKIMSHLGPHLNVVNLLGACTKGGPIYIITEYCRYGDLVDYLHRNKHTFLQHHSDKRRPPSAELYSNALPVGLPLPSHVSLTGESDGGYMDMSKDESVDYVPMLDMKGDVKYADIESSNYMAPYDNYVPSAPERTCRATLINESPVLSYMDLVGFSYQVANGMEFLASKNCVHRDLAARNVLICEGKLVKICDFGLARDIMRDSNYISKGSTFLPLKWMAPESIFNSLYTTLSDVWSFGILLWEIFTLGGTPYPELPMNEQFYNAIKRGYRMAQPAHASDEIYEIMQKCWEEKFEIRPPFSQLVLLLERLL
T1 sequence (P10721 589-937 limits assumed): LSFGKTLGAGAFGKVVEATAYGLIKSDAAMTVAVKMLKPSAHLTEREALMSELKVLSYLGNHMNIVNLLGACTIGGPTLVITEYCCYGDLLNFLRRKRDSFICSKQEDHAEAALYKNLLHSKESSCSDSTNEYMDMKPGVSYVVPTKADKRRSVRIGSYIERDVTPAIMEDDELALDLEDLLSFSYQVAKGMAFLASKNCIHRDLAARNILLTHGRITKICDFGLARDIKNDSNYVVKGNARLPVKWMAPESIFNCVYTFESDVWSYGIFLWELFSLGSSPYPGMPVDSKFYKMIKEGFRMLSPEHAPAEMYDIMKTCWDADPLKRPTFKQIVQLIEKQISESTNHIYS

| SMILES | inhibition at 1 µM (cKIT) | inhibition at 1 µM [1] | inhibition at 1 µM (PDGFRb) | inhibition at 1 µM [2] |
| --- | --- | --- | --- | --- |
| O[C@@H]1CCCC[C@H]1Nc1nc2ccc(Oc3cnccc3Cl)cc2s1 [Compound 7, (1R,2R)-2-(6-(4-chloropyridin-3-yloxy)benzo[d]thiazol-2-ylamino) cyclohexanol] | 25% | 42% | 11% | 100% |
| Nc1cc(Oc2ccc3nc(NCC4CCCCC4)sc3c2)ncn1 [Compound 8, 6-(6-aminopyrimidin-4-yloxy)-N-(cyclohexylmethyl) benzo[d]thiazol-2-amine] | 75% | 30% | 46% | 100% |
| Nc1cc(Oc2ccc3nc(N[C@@H]4CCCC[C@H]4O)sc3c2)ncn1 [Compound 9, (1R,2R)-2-(6-(6-aminopyrimidin-4-yloxy)benzo[d]thiazol-2-ylamino) cyclohexanol] | 13% | 15% | 2% | 97% |
| CNC(=O)c1cc(Oc2ccc3nc(NCC4CCCCC4)sc3c2)nc(OC)n1 [Compound 10, 6-(2-(Cyclohexylmethylamino)benzo[d]thiazol-6-yloxy)-2-methoxy-n-methylpyrimidine-4-carboxamide] | 16% | 27% | 5% | 96% |
| CNc1cc(Oc2ccc3nc(NCC4CCCCC4)sc3c2)ncn1 [Compound 13, N-(cyclohexylmethyl)-6-(6-(methylamino)pyrimidin-4-yloxy)benzo[d]thiazol-2-amine] | 42% | 18% | 30% | 98% |
| COc1cc2ncnc(Oc3ccc4nc(NCC5CCCCC5)sc4c3)c2cc1OC [Compound 17, N-(cyclohexylmethyl)-6-(6,7-dimethoxyquinazolin-4-yloxy)benzo[d] thiazol-2-amine] | 99% | 100% | 98% | 100% |
| O[C@@H]1CCCC[C@H]1Nc1nc2ccc(Oc3ncnc4ccccc34)cc2s1 [Compound 18, (1R,2R)-2-(6-(quinazolin-4-yloxy)benzo[d]thiazol-2-ylamino)cyclohexanol] | 22% | 38% | 11% | 100% |
| COc1cc2ncnc(Oc3ccc4nc(N[C@@H]5CCCC[C@H]5O)sc4c3)c2cc1OC [Compound 19, (1R,2R)-2-(6-(6,7-dimethoxyquinazolin-4-yloxy)benzo [d]thiazol-2-ylamino) cyclohexanol] | 34% | 100% | 30% | 100% |
| Cn1cc(-c2cc(Oc3ccc4nc(NCC5CCCCC5)sc4c3)ncn2)cn1 [Compound 20, N-(cyclohexylmethyl)-6-(6-(1-methyl-1H-pyrazol-4-yl)pyrimidin-4-yloxy)benzo[d]thiazol-2-amine] | 99% | 96% | 82% | 100% |
| Cn1cc(-c2nccc(Oc3ccc4nc(NCC5CCCCC5)sc4c3)n2)cn1 [Compound 21, N-(cyclohexylmethyl)-6-(2-(1-methyl-1H-pyrazol-4-yl)pyrimidin-4-yloxy) benzo[d]thiazol-2-amine] | 100% | 100% | 92% | 100% |
| Cn1cc(-c2cc(Oc3ccc4nc(N[C@@H]5CCCC[C@H]5O)sc4c3)ncn2)cn1 [Compound 22, (1R,2R)-2-(6-(6-(1-methyl-1H-pyrazol-4-yl)pyrimidin-4-yloxy)benzo[d]thiazol-2-ylamino) cyclohexanol] | 29% | 100% | 11% | 100% |
| Cn1cc(-c2nccc(Oc3ccc4nc(N[C@@H]5CCCC[C@H]5O)sc4c3)n2)cn1 [Compound 23, (1R,2R)-2-(6-(2-(1-methyl-1H-pyrazol-4-yl)pyrimidin-4-yloxy)benzo[d]thiazol-2-ylamino) cyclohexanol] | 19% | 100% | 7% | 100% |
| c1cc(-n2cncn2)cc(Oc2ccc3nc(NCC4CCCCC4)sc3c2)n1 [Compound 24, 6-(4-(1H-1,2,4-triazol-1-yl)pyridin-2-yloxy)-N-(cyclohexylmethyl)benzo[d]thiazol-2-amine] | 7% | 0% | 9% | 44% |
| Cn1nccc1-c1cc(Oc2ccc3nc(N[C@@H]4CCCC[C@H]4O)sc3c2)ncn1 [Compound 25, (1R,2R)-2-(6-(6-(1-methyl-1H-pyrazol-5-yl)pyrimidin-4-yloxy)benzo[d]thiazol-2-ylamino) cyclohexanol] | 22% | 14% | 0% | 69% |
| Cn1nccc1-c1nccc(Oc2ccc3nc(N[C@@H]4CCCC[C@H]4O)sc3c2)n1 [Compound 26, (1R,2R)-2-(6-(2-(1-methyl-1H-pyrazol-5-yl)pyrimidin-4-yloxy)benzo[d]thiazol-2-ylamino) cyclohexanol] | 24% | 19% | 20% | 100% |
| Nc1ccc(-c2nccc(Oc3ccc4nc(N[C@@H]5CCCC[C@H]5O)sc4c3)n2)cn1 [Compound 29, (1R,2R)-2-(6-(2-(6-aminopyridin-3-yl)pyrimidin-4-yloxy)benzo[d]thiazol-2-ylamino)cyclohexanol] | 13% | 76% | 11% | 100% |
| C[C@H](Nc1nc2ccc(Oc3ccnc(-c4cnn(C)c4)n3)cc2s1)C1CCCCC1 [Compound 30, (S)-N-(1-cyclohexylethyl)-6-(2-(1-methyl-1H-pyrazol-4-yl)pyrimidin-4-yloxy)benzo[d] thiazol-2-amine] | 24% | 100% | 21% | 100% |
| C[C@H](Nc1nc2ccc(Oc3ccnc(-c4ccc(N)nc4)n3)cc2s1)C1CCCCC1 [Compound 33, (S)-6-(2-(6-aminopyridin-3-yl)pyrimidin-4-yloxy)-N-(1-cyclohexylethyl) benzo[d]thiazol-2-amine] | 32% | 78% | 22% | 100% |
| C[C@H](Nc1nc2ccc(Oc3ccnc(-c4ccnn4C)n3)cc2s1)C1CCCCC1 [Compound 34, (S)-N-(1-cyclohexylethyl)-6-(2-(1-methyl-1H-pyrazol-5-yl)pyrimidin-4-yloxy)benzo[d]thiazol-2-amine] | 21% | 19% | 6% | 100% |
| c1nc(Oc2ccc3nc(NCC4CCCCC4)sc3c2)c2ccsc2n1 [Compound 37, N-(cyclohexylmethyl)-6-(thieno[2,3-d]pyrimidin-4-yloxy) benzo[d]thiazol-2-amine] | 75% | 0% | 39% | 100% |
| C[C@H](Nc1nc2ccc(Oc3cc(-n4cncn4)ncn3)cc2s1)C1CCCCC1 [Compound 41, (S)-6-(6-(1H-1,2,4-triazol-1-yl)pyrimidin-4-yloxy)-N-(1-cyclohexylethyl) benzo[d]thiazol-2-amine] | 28% | 0% | 0% | 99% |
| Cn1ncc2c(Oc3ccc4nc(NCC5CCCCC5)sc4c3)ncnc21 [Compound 44, N-(cyclohexylmethyl)-6-(1-methyl-1H-pyrazolo[3,4-d]pyrimidin-4-yloxy)benzo[d]thiazol-2-amine] | 14% | 0% | 19% | 99% |
